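Each compound was tested at five concentrations against cells in 96-well plates for 48 hours. Definition used: TGI = concentration required for complete inhibition of growth.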
Experiments:
Experiment in all cases: DTP human tumour cell line panel, 48 h
IGROV1 ovarian = tested on: IGROV1 ovarian
MDA-MB-231 breast = tested on: MDA-MB-231 breast
PC-3 prostate = tested on: PC-3 prostate
MDA-N = tested on: MDA-N
OVCAR-8 ovarian = tested on: OVCAR-8 ovarian
DU-145 prostate = tested on: DU-145 prostate
HS 578T breast = tested on: HS 578T breast
KM12 colon = tested on: KM12 colon
SK-MEL-28 melanoma = tested on: SK-MEL-28 melanoma
786-0 renal = tested on: 786-0 renal
SN12C renal = tested on: SN12C renal
NCI-H522 lung = tested on: NCI-H522 lung
SF-268 CNS = tested on: SF-268 CNS
SK-OV-3 ovarian = tested on: SK-OV-3 ovarian
HL-60(TB) leukemia = tested on: HL-60(TB) leukemia
MDA-MB-435 = tested on: MDA-MB-435
LOX IMVI melanoma = tested on: LOX IMVI melanoma
NCI/ADR-RES ovarian = tested on: NCI/ADR-RES ovarian
CCRF-CEM leukemia = tested on: CCRF-CEM leukemia
HT29 colon = tested on: HT29 colon
TK-10 renal = tested on: TK-10 renal
HOP-92 NSCLC = tested on: HOP-92 NSCLC
A498 renal = tested on: A498 renal
SNB-19 CNS = tested on: SNB-19 CNS
SK-MEL-2 melanoma = tested on: SK-MEL-2 melanoma
OVCAR-5 ovarian = tested on: OVCAR-5 ovarian
HOP-62 NSCLC = tested on: HOP-62 NSCLC
OVCAR-4 ovarian = tested on: OVCAR-4 ovarian
UACC-62 melanoma = tested on: UACC-62 melanoma
MCF7 breast = tested on: MCF7 breast
RXF 393 renal = tested on: RXF 393 renal
HCT-15 colon = tested on: HCT-15 colon
UO-31 renal = tested on: UO-31 renal
SF-295 CNS = tested on: SF-295 CNS
OVCAR-3 ovarian = tested on: OVCAR-3 ovarian
NCI-H226 lung = tested on: NCI-H226 lung
SR leukemia = tested on: SR leukemia
NCI-H460 lung = tested on: NCI-H460 lung
SW-620 colon = tested on: SW-620 colon
ACHN renal = tested on: ACHN renal
K-562 leukemia = tested on: K-562 leukemia
A549 NSCLC = tested on: A549 NSCLC
T-47D breast = tested on: T-47D breast
NCI-H23 lung = tested on: NCI-H23 lung
MOLT-4 leukemia = tested on: MOLT-4 leukemia
CAKI-1 renal = tested on: CAKI-1 renal
RPMI-8226 leukemia = tested on: RPMI-8226 leukemia
EKVX NSCLC = tested on: EKVX NSCLC
SF-539 CNS = tested on: SF-539 CNS
M14 melanoma = tested on: M14 melanoma
U251 CNS = tested on: U251 CNS
UACC-257 melanoma = tested on: UACC-257 melanoma
BT-549 breast = tested on: BT-549 breast
SK-MEL-5 melanoma = tested on: SK-MEL-5 melanoma
MALME-3M melanoma = tested on: MALME-3M melanoma
HCT-116 colon = tested on: HCT-116 colon
HCC-2998 colon = tested on: HCC-2998 colon
COLO 205 colon = tested on: COLO 205 colon

Measured: TGI

C[C@H](CCC(=O)NN)[C@H]1CC[C@H]2[C@@H]3CC[C@@H]4C[C@H](O)CC[C@]4(C)[C@H]3CC[C@]12C
> 88.8 µM: DU-145 prostate
> 96 µM: COLO 205 colon
37.6 µM: HL-60(TB) leukemia
> 72.1 µM: CCRF-CEM leukemia
67.2 µM: RXF 393 renal
> 52.7 µM: MOLT-4 leukemia
59.9 µM: RPMI-8226 leukemia
62.2 µM: SR leukemia
56.4 µM: SK-MEL-5 melanoma
> 93.8 µM: TK-10 renal
72.4 µM: M14 melanoma
> 90.6 µM: HCC-2998 colon
> 70.1 µM: NCI-H522 lung
41.1 µM: K-562 leukemia
97.1 µM: MCF7 breast
> 100 µM: all other assays above
